Data reported in BindingDB's records for doi:10.1016/s0968-0896(99)00306-5 (University of Bologna, 2000).
pIC50, pKi: −log10 of the molar value.

What was measured:
Acetylcholinesterase = Acetylcholinesterase (Homo sapiens, UniProt P22303); experiment: Cholinesterase Inhibition Assay
Procedure: (§1) The cholinesterase assays were performed using colorimetric method reported by Ellman. The absorbance changes at 412 nm were recorded for 5 min with a Jasco Uvidec-610 double beam Spectrophotometer. The reaction rates were compared and the percent inhibition due to the presence of test compounds was calculated. Inhibition curve was obtained for each compound.

Cholinesterase = Cholinesterase (Homo sapiens, UniProt P06276); experiment: Cholinesterase Inhibition Assay; conditions: pH 8; 37 °C
Procedure: as §1

Sequence of Acetylcholinesterase (P22303 whole entry): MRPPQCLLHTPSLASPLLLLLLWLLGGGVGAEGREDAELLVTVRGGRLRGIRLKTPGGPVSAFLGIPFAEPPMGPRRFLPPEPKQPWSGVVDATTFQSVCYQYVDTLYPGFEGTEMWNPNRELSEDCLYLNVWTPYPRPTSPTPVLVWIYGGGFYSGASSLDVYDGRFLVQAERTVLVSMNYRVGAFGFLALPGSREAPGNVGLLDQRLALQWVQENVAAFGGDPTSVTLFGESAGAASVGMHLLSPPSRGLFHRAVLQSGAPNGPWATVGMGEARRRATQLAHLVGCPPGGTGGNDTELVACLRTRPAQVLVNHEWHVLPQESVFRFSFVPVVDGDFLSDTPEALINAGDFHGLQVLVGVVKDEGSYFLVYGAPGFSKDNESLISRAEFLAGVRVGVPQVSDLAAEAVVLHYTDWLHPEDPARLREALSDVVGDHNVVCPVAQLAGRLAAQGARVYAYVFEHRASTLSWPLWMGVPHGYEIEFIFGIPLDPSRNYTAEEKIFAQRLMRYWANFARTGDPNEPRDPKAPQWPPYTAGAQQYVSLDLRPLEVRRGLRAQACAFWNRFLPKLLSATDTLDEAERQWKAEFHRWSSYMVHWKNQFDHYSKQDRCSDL
Sequence of Cholinesterase (P06276 whole entry): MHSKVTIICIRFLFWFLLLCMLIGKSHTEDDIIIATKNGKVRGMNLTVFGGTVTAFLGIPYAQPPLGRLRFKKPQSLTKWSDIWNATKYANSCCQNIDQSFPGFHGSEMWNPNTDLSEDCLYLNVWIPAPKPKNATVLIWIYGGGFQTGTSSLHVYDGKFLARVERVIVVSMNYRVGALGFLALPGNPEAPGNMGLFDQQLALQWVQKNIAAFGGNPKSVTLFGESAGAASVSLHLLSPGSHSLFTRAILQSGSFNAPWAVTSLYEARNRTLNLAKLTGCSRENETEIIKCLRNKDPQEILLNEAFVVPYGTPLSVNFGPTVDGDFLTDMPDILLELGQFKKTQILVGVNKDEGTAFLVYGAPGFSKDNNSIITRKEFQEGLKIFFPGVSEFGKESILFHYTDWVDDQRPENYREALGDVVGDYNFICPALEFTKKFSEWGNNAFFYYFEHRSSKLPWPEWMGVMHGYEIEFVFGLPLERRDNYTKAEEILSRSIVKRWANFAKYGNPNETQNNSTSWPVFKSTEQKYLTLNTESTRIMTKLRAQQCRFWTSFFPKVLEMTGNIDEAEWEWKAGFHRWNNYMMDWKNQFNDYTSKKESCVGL

Row | SMILES | pIC50 (Acetylcholinesterase) | pIC50 (Cholinesterase) | pKi (Acetylcholinesterase)
1 | Nc1c2c(nc3ccccc13)-c1ccc(Cl)cc1C2 [8-chloro-10H-indeno[1,2-b]quinolin-11-amine] | 5.27 | – | –
2 | Nc1c2c(nc3cc(Cl)ccc13)-c1ccccc1C2 [3-chloro-10H-indeno[1,2-b]quinolin-11-amine] | 5.19 | – | –
3 | Nc1c2c(nc3cc([N+](=O)[O-])ccc13)-c1ccccc1C2 [3-nitro-10H-indeno[1,2-b]quinolin-11-amine] | 4.17 | – | –
4 | Nc1c2c(nc3ccccc13)-c1ccc(F)cc1C2 [8-fluoro-10H-indeno[1,2-b]quinolin-11-amine] | 6.37 | 5.15 | –
5 | Nc1ccc2c(N)c3c(nc2c1)-c1ccccc1C3 [11H-Indeno-[1,2-b]-quinolin-7,10-diamine] | 4.54 | – | –
6 | c1ccc(CNc2c3c(nc4ccccc24)-c2ccccc2C3)cc1 [N-benzyl-10H-indeno[1,2-b]quinolin-11-amine] | 5.15 | 6.30 | 5.12
7 | CNc1c2c(nc3ccccc13)-c1ccccc1C2 [N-methyl-10H-indeno[1,2-b]quinolin-11-amine] | 5.89 | 5.80 | –
8 | COc1cccc2c1Cc1c-2nc2ccccc2c1N [9-methoxy-10H-indeno[1,2-b]quinolin-11-amine] | 5.80 | 5.52 | –
9 | Nc1c2c(nc3ccc([N+](=O)[O-])cc13)-c1ccccc1C2 [2-nitro-10H-indeno[1,2-b]quinolin-11-amine] | < 4.00 | – | –
10 | Nc1c2c(nc3cc(F)ccc13)-c1ccccc1C2 [3-fluoro-10H-indeno[1,2-b]quinolin-11-amine] | 5.92 | 5.24 | –
11 | Cc1cccc2c1Cc1c-2nc2ccccc2c1N [9-methyl-10H-indeno[1,2-b]quinolin-11-amine] | 5.41 | – | –
12 | Nc1c2c(nc3ccccc13)-c1ccccc1C2 | – | 5.33 | 6.68
13 | COc1ccc2c(c1)-c1nc3ccccc3c(N)c1C2 [7-methoxy-10H-indeno[1,2-b]quinolin-11-amine] | 5.37 | – | –
14 | Cc1ccc2c(c1)-c1nc3ccccc3c(N)c1C2 [7-methyl-10H-indeno[1,2-b]quinolin-11-amine] | 5.34 | – | –
15 | Nc1ccc2nc3c(c(N)c2c1)Cc1ccccc1-3 [11H-Indeno-[1,2-b]-quinolin-8,10-diamine] | 5.23 | – | –
16 | CCCCCCCNc1c2c(nc3ccccc13)-c1ccccc1C2 [N-Heptyl-N-11H-indeno-[1,2-b]-quinolin-10-yl)-amine] | 5.37 | – | –
17 | COc1ccc2c(c1)Cc1c-2nc2ccccc2c1N [8-methoxy-10H-indeno[1,2-b]quinolin-11-amine] | 5.19 | – | –
